# Measurements from article PMC2881055, “Endocytic pathways mediating oligomeric Aβ42 neurotoxicity” (Molecular Neurodegeneration, 2010).
# Tests used:
# N2A cells [1] = experiment: oAβ42-induced neurotoxicity in N2A cells, with inhibitor or siRNA (CellTiter-Glo ATP assay); type: cell-based, mouse; set-up: effect on Aβ42 toxicity: dose or concentration left out as unconfirmed
# Experimental: Small interfering RNA (siRNA) for the clathrin heavy chain (CLTC, SMARTpool L-004001-00-0005) and control Non-Targeting siRNA were purchased from Dharmacon. Cells were transfected at 20 pmol siRNA in 24-well culture plates using LipofectAmine 2000 according to vendor's recommended transfection protocol. A second transfection was done the next day. These transfected cells were then split and seeded on to 96-well plate in MEM with 10% FBS. 48 hours post-transfection, these cells were treated with oAβ42 for 24 hours.
# N2A cells [2] = tested on: N2A cells; set-up: lethality to N2A cells: dose or concentration left out as unconfirmed; settings: cited from earlier work
# N2A cells [3] = tested on: N2A cells
# Experimental: Mouse neuroblastoma, N2A cells (ATCC) were maintained in MEM (ATCC) supplemented with 10% FBS, 2 mM L-glutamine, 100 U/ml of penicillin, 100 ug/ml of streptomycin, as previously described. 5000 cells per well were plated on to 96-well plates 24 hours prior to treatment to allow attachment. Cells were then treated […] oAβ42 in DMEM medium without phenol red and with 1% N2 supplement (Invitrogen). At the end of the experiment (24 hours post-treatment), cell viability was assessed by relative cellular ATP levels using CellTiter-Glo assay kit (Promega) according to the manufacture's instruction. Statistical significance was established at p < 0.01 by One-way ANOVA with Tukey test for comparison in different groups.
# N2A cells were treated with pharmacological inhibitors that block specific steps during endocytosis. […] Chlorpromazine (2 mM), genistein ([…]), PP2 (1 mM) were added to cell cultures at indicated concentrations 1 hr before oAβ42 treatment in DMEM with 1% N2 supplement. The final concentration of vehicle (DMSO) was 0.05% in all cultures.
# neuroblastoma cell line = tested on: neuroblastoma cell line; set-up: method as in PMID 3796890; settings: cited from earlier work
# [4] = tested on: cultured hippocampal neurons; settings: cited from earlier work
# Description: (§1) Dynamin mediates both clathrin-dependent and -independent endocytosis (for review, [76]). We first used two pharmacological inhibitors to block the dynamin-dependent endocytic pathway, genistein (a general tyrosine kinase inhibitor) and PP2 (a Src family tyrosine kinase inhibitor). […] The result was consistent with previous reports that this agent protected from Aβ induced toxicity in cultured hippocampal neurons and SH-SY5Y cells.
# SH-SY5Y cells = settings: cited from earlier work
# Description: as §1
# N2A cells [5] = settings: co-cultures of primary neurons and glia, and Neuro-2A cells (N2A); cited from earlier work
# Description: Here we focus mainly on endocytic pathways in relation to oAβ42 toxicity in N2A cells.
compound,measurement,setting,value
CC(C)(C)n1nc(-c2ccc(Cl)cc2)c2c(N)ncnc21 [PP2],effect on Aβ42 toxicity,"N2A cells [1]; PP2 pre-treatment 1 hr before oAβ42, 24 hours, data not shown",decreased Aβ42 toxicity though to a lesser extent than genistein
same,lethality to N2A cells,N2A cells [2],lethal
CN(C)CCCN1c2ccccc2Sc2ccc(Cl)cc21 [chlorpromazine],toxicity to N2A cells,N2A cells [3],toxic
same,cell viability retained,"N2A cells [3]; N2A cells, 2 mM chlorpromazine, ATP-based CellTiter-Glo",90%
same,effect on oAβ42 neurotoxicity,"N2A cells [1]; 2 mM chlorpromazine added 1 hr before oAβ42, 24 hours, data not shown",failed to block
same,effect on cells at higher concentration,neuroblastoma cell line; 10^-4-10^-3 M,killed cells
same,effect on Ca++-mediated toxicity at lower concentration,neuroblastoma cell line; 10^-6-10^-5 M,inhibited Ca^++-mediated toxicity
O=c1c(-c2ccc(O)cc2)coc2cc(O)cc(O)c12 [genistein],effect on oAβ42-induced toxicity,"N2A cells [1]; pre-treated with 10 mM genistein for 1 hour, 10 μM oAβ42 for 24 hours, p < 0.01",significantly inhibited
same,protection from Aβ induced toxicity,[4],protected
same,protection from Aβ induced toxicity,SH-SY5Y cells,protected
same,IC50,"N2A cells [2]; read-out: IC50, inhibition of growth of N2A cells, dose-dependent",18 µM
"oAβ42: Oligomer preparation of recombinant Aβ42 (rPeptide), formed in DMSO/Ham's F12 at 4°C for 24 hours",neurotoxicity of the oAβ42 preparation,N2A cells [5],causes neurotoxicity
